Experimental data from PMC8333425, “Discovery of a dual Ras and ARF6 inhibitor from a GPCR endocytosis screen” (Nature Communications, 2021).
Values joined by “and” are separate entries in the source; they are usually repeats but may differ in a detail not shown here. Equal entries are not always repeated. “Also recorded” adds a separate entry of the source.

Tested on: A549 cells
Experiment: Cell proliferation assay (IncuCyte confluence), A549
Type: cell-based, human
Settings: for cell confluence (proliferation) / proliferation (confluence): listed as Rasarfin
Procedure: Cell proliferation was measured by a label-free, non-invasive cellular confluence assay using IncuCyte Live-Cell Imaging Systems (Essen Bioscience, Ann Arbor, MI, USA). MDA-MB-231 breast cancer and A549 lung carcinomas cells (1500 cells in 150 μl/well) were seeded overnight on a clear 96-well plate. Twenty-four hours later, the cells were treated with 0.1% DMSO, or different concentrations of Rasarfin (as indicated), or 10 µM of 21.4 or 21.8 for 96 h total. The plate was placed in an XL-3 incubation chamber maintained at 37 °C and the cells were photographed using a ×4 objective, every 3 h for 4 days. Cell confluence was calculated using IncuCyte S3 software (2019A) and cell proliferation was expressed as an increase in the percentage of confluence. Experiments were done in triplicate and repeated three times.

CC(C)C(=O)N1CCN(c2ccc(NC(=O)c3cc4ccccc4o3)cc2Cl)CC1 [Compound 21]
cell confluence (proliferation) (0.5μM, 18 hr): 9.332 and 9.3043 and 10.3515 | proliferation (confluence) (0.5μM, 18 hr): 24.4895 and 24.566 and 18.9209 | cell confluence (proliferation) (0.5μM, 21 hr): 10.4726 and 10.4517 and 11.0087 | proliferation (confluence) (0.5μM, 21 hr): 27.1666 and 26.6886 and 21.2647 | cell confluence (proliferation) (0.5μM, 24 hr): 10.2389 and 10.6946 and 11.5243 | proliferation (confluence) (0.5μM, 24 hr): 32.6256 and 30.048 and 24.569 | cell confluence (proliferation) (0.5μM, 27 hr): 10.805 and 11.0634 and 12.4799 | proliferation (confluence) (0.5μM, 27 hr): 37.2681 and 34.654 and 21.9145 | cell confluence (proliferation) (0.5μM, 30 hr): 11.9152 and 12.485 and 12.9764 | proliferation (confluence) (0.5μM, 30 hr): 41.4109 and 39.7044 and 23.7331 | cell confluence (proliferation) (0.5μM, 33 hr): 12.3634 and 12.541 and 13.8499 | proliferation (confluence) (0.5μM, 33 hr): 46.0502 and 43.4249 and 28.4554 | proliferation (confluence) (0.5μM, 36 hr): 51.8492 and 49.6782 and 33.7864 | proliferation (confluence) (0.5μM, 39 hr): 59.4007 and 56.0507 | cell confluence (proliferation) (1μM, 18 hr): 8.679 and 9.302 and 9.424 | proliferation (confluence) (1μM, 18 hr): 19.1081 and 18.3715 and 26.7974 | cell confluence (proliferation) (1μM, 21 hr): 9.1 and 10.4023 and 9.667 | proliferation (confluence) (1μM, 21 hr): 21.9794 and 20.7173 and 31.1317 | cell confluence (proliferation) (1μM, 24 hr): 9.619 and 10.4616 and 10.6323 | proliferation (confluence) (1μM, 24 hr): 24.7962 and 23.1147 and 35.367 | cell confluence (proliferation) (1μM, 27 hr): 10.2207 and 11.0837 and 11.4063 | proliferation (confluence) (1μM, 27 hr): 28.2759 and 21.7311 and 40.5461 | cell confluence (proliferation) (1μM, 30 hr): 12.7027 and 12.0976 and 12.1684 | proliferation (confluence) (1μM, 30 hr): 31.8721 and 23.9788 and 46.1337 | cell confluence (proliferation) (1μM, 33 hr): 12.8101 and 12.4309 and 12.7886 | proliferation (confluence) (1μM, 33 hr): 35.7112 and 29.1451 and 51.7711 | cell confluence (proliferation) (1μM, 36 hr): 13.5305 | proliferation (confluence) (1μM, 36 hr): 39.6717 and 33.6517 and 60.1281 | proliferation (confluence) (1μM, 39 hr): 47.4848 and 40.2179 | cell confluence (proliferation) (2μM, 18 hr): 9.332 and 13.0386 and 10.4059 | proliferation (confluence) (2μM, 18 hr): 23.9116 and 20.6158 and 17.6553 | cell confluence (proliferation) (2μM, 21 hr): 10.4726 and 14.2716 and 10.9627 | proliferation (confluence) (2μM, 21 hr): 27.3499 and 22.7836 and 20.9361 | cell confluence (proliferation) (2μM, 24 hr): 10.2389 and 15.0053 and 11.5919 | proliferation (confluence) (2μM, 24 hr): 32.3505 and 25.0274 and 22.3969 | cell confluence (proliferation) (2μM, 27 hr): 10.805 and 15.8245 and 11.5779 | proliferation (confluence) (2μM, 27 hr): 36.576 and 29.0777 and 20.6023 | cell confluence (proliferation) (2μM, 30 hr): 11.9152 and 18.2698 and 12.1995 | proliferation (confluence) (2μM, 30 hr): 40.8806 and 32.6797 and 23.0649 | cell confluence (proliferation) (2μM, 33 hr): 12.3634 and 18.789 and 13.0531 | proliferation (confluence) (2μM, 33 hr): 45.6439 and 35.4748 and 28.9537 | cell confluence (proliferation) (2μM, 36 hr): 12.4389 and 19.3831 and 13.6426 | proliferation (confluence) (2μM, 36 hr): 52.1825 and 39.835 and 32.0484 | proliferation (confluence) (2μM, 39 hr): 61.5258 and 48.4257 and 38.4343 | cell confluence (proliferation) (5μM, 18 hr): 10.0859 and 8.906 and 10.6663 | proliferation (confluence) (5μM, 18 hr): 17.9959 and 26.9316 and 16.8915 | cell confluence (proliferation) (5μM, 21 hr): 10.2266 and 10.3015 and 11.0904 | proliferation (confluence) (5μM, 21 hr): 19.5572 and 26.3286 and 18.8493 | cell confluence (proliferation) (5μM, 24 hr): 11.4115 and 9.856 and 11.3241 | proliferation (confluence) (5μM, 24 hr): 21.409 and 27.1851 and 17.4154 | cell confluence (proliferation) (5μM, 27 hr): 11.7245 and 10.4475 and 12.7275 | proliferation (confluence) (5μM, 27 hr): 22.045 and 28.0966 and 15.1402 | cell confluence (proliferation) (5μM, 30 hr): 12.7699 and 11.1958 and 12.4012 | cell confluence (proliferation) (5μM, 33 hr): 12.6309 and 11.193 and 12.7637 | proliferation (confluence) (5μM, 33 hr): 25.4457 and 25.9951 and 18.0713 | cell confluence (proliferation) (5μM, 36 hr): 13.1014 and 11.8184 and 13.4133 | proliferation (confluence) (5μM, 36 hr): 26.9015 and 24.9434 and 20.5372 | proliferation (confluence) (5μM, 39 hr): 29.6606 and 26.9243 and 22.5988 | cell confluence (proliferation) (10μM, 18 hr): 8.409 and 7.2062 and 9.084 | proliferation (confluence) (10μM, 18 hr): 10.5387 and 14.905 and 7.973 | cell confluence (proliferation) (10μM, 21 hr): 8.837 and 8.143 and 9.362 | proliferation (confluence) (10μM, 21 hr): 10.701 and 14.8102 and 7.904 | cell confluence (proliferation) (10μM, 24 hr): 9.479 and 8.1046 and 9.485 | proliferation (confluence) (10μM, 24 hr): 11.1918 and 15.0497 and 7.616 | cell confluence (proliferation) (10μM, 27 hr): 9.816 and 8.066 and 10.344 | cell confluence (proliferation) (10μM, 30 hr): 10.3507 and 8.537 and 10.5983 | cell confluence (proliferation) (10μM, 33 hr): 10.1924 and 8.993 and 10.9238 | cell confluence (proliferation) (10μM, 36 hr): 10.249 and 9.152 and 11.0645 | A549 cell growth (confluency) (5 and 10 µM of Rasarfin): efficiently blocks proliferation; also recorded: efficient A549 cell growth inhibition
